Several values for one entry are separate records, joined by “and”; a condition that tells them apart may be missing. Equal entries are not always repeated.
Test: solvent given as SMILES

## CCCN1/C(=C/C=C(/C=C/C2=[N+](CCC)c3ccccc3C2(C)C)c2ccc3ccccc3n2)C(C)(C)c2ccccc21
In CO
  absorption maximum: 629 nm
In CS(C)=O
  absorption maximum: 641 nm
In O
  absorption maximum: 633 nm

## NCc1ccc2ccc3cccc4ccc1c2c34
In CC#N
  absorption maximum: 341 nm
In CO
  absorption maximum: 340 nm
In ClC(Cl)Cl
  absorption maximum: 344 nm

## O=Cc1ccc(-c2cccc(-c3nc4ccccc4s3)c2O)s1
In CCO
  absorption maximum: 367 nm
In ClCCl
  absorption maximum: 370 nm

## O=Cc1ccc(C2=C3C=c4c(oc5ccccc45)=[N+]3[B-](F)(F)n3c2cc2c4ccccc4oc23)cc1
In C1CCCCC1
  absorption maximum: 592.5 nm
In C1CCOC1
  absorption maximum: 589 nm
In CC#N
  absorption maximum: 585.5 nm
In CCOC(C)=O
  absorption maximum: 587 nm
In CN(C)C=O
  absorption maximum: 589 nm
In CO
  absorption maximum: 583 nm
In Cc1ccccc1
  absorption maximum: 597 nm
In ClCCl
  absorption maximum: 593.5 nm

## C(=C\c1ccc(-c2nnc(-c3ccccc3)o2)cc1)/c1ccc(-c2nnc(-c3ccccc3)o2)cc1
In CN(C)C=O
  absorption maximum: 347 nm

## CCN1CCCc2cc3c(cc21)Oc1cc2c(cc1=N3)C(CS(=O)(=O)[O-])CC(C)(C)[N+]=2CCCC(=O)[O-] (stereo unspecified)
In O
  absorption maximum: 655 nm

## COCCOCCOCCOCC(COCCOCCOCCOC)Oc1cc(/C=C/c2ccc(/C=C(\C#N)c3ccccn3)cc2)c(OC(COCCOCCOCCOC)COCCOCCOCCOC)cc1/C=C/c1ccc(/C=C(\C#N)c2ccccn2)cc1
In ClCCl
  absorption maximum: 443 nm

## CC(=O)O[B-]1(OC(C)=O)OC(/C=C/C=C/c2ccccc2)=CC(/C=C/C=C/c2ccccc2)=[O+]1
In C1CCOC1
  absorption maximum: 468 nm
In CC#N
  absorption maximum: 472 nm
In CC(C)=O
  absorption maximum: 468 nm
In CS(C)=O
  absorption maximum: 478 nm
In Cc1ccccc1
  absorption maximum: 470 nm
In ClC(Cl)Cl
  absorption maximum: 474 nm
In ClCCl
  absorption maximum: 474 nm

## CC(C)c1cccc(C(C)C)c1N1C(=O)c2cccc3c(Oc4ccccc4)ccc(c23)C1=O
In ClCCl
  absorption maximum: 364 nm

## OC1(c2ccc(-c3cccs3)s2)CCCCC1
In C1CCOC1
  absorption maximum: 312 nm
In CC#N
  absorption maximum: 309 nm
In CCCCCC
  absorption maximum: 308 nm
In CCO
  absorption maximum: 309 nm
In OCCOCCO
  absorption maximum: 317 nm
In c1ccncc1
  absorption maximum: 315 nm

## Cc1csc(C)c1C1=C(c2c(C)sc(-c3ccc(-c4nc(-c5ccccc5)c(-c5ccccc5)[nH]4)cc3)c2C)C(F)(F)C(F)(F)C1(F)F
In C1CCOC1
  absorption maximum: 339 nm

## CCCCCC(=O)c1cccc2sc3c(c12)P(=O)(c1ccccc1)c1ccccc1-3 (stereo unspecified)
In ClCCl
  absorption maximum: 359 nm and 380 nm

## COc1ccccc1-c1nc(-c2ccc(C(F)(F)F)cc2)n(-c2ccc(C)cc2)c1-c1ccccc1OC
In CC(C)O
  absorption maximum: 285 nm
In CCCCCC
  absorption maximum: 285 nm
In CO
  absorption maximum: 284 nm
In CS(C)=O
  absorption maximum: 286 nm
In ClCCl
  absorption maximum: 286 nm

## COc1ccc(/C=C/C2=C3CCc4ccccc4C3=[O+][B-](F)(F)O2)cc1
In ClCCl
  absorption maximum: 467 nm

## Cc1ccc2c(c1)C1(c3ccccc3Oc3ccccc31)c1cc(C)ccc1N2c1ccc(-c2nc(-c3ccccc3)cc(-c3ccccc3)n2)cc1
In Cc1ccccc1
  absorption maximum: 378 nm

## COc1c(C)c2c(c(C)c1Cl)Oc1c(C=O)c(O)c(Cl)c(C)c1C(=O)O2
In ClC(Cl)Cl
  absorption maximum: 342 nm

## CCOC(=O)C1=C(N)n2c(=O)c3ccccc3c(=O)n2C1c1ccc(C)cc1 (stereo unspecified)
In CS(C)=O
  absorption maximum: 365 nm

## N#CC=C(c1ccc(N2c3ccccc3Oc3ccccc32)cc1)c1ccc(N2c3ccccc3Oc3ccccc32)cc1
In Cc1ccccc1
  absorption maximum: 405 nm

## CC1(C)C(/C=C/C=C/C=C/C=C2/N(CCCCCC(=O)O)c3ccc(S(=O)(=O)[O-])cc3C2(C)C)=[N+](CCCCCC(=O)O)c2ccc(S(=O)(=O)[O-])cc21
In CO
  absorption maximum: 753 nm
In O
  absorption maximum: 748 nm

## O=C1CCCC2=C1CC1=C(CCCC1=O)N2NC(=O)c1ccc(O)cc1
In CC#N
  absorption maximum: 368 nm
In CC(C)=O
  absorption maximum: 368 nm
In CCCCCO
  absorption maximum: 376 nm
In CO
  absorption maximum: 376 nm
In ClC(Cl)Cl
  absorption maximum: 368 nm
In ClCCl
  absorption maximum: 372 nm

## CCCCN1C(=S)c2cccc3cccc(c23)C1=S
In CC#N
  absorption maximum: 437 nm
In CS(C)=O
  absorption maximum: 443 nm
In Cc1ccccc1
  absorption maximum: 442 nm

## CN(C)c1ccc2[c](c1)[Sn]([CH3])([CH3])[C]1=CC(=[N+](C)C)C=CC1=C2
In O
  absorption maximum: 614 nm

## O=c1c2ccccc2nc2ccc(-c3ccc(N(c4ccccc4)c4ccccc4)cc3)cn12
In ClCCl
  absorption maximum: 355 nm

## CCOC(=O)c1ccc2nc(N)sc2c1
In CC#N
  absorption maximum: 293 nm
In ClCCl
  absorption maximum: 293 nm

## CCOC(=O)c1nn(-c2ccc(OC)cc2)nc1N1CCCC1
In CC#N
  absorption maximum: 336 nm

## COc1ccc(-c2c3nc(cc4ccc([nH]4)c(-c4ccc(OC)c(OCCCC(=O)O)c4)c4nc(cc5ccc2[nH]5)CC4)C=C3)cc1OCCCC(=O)O
In CS(C)=O
  absorption maximum: 644 nm

## [O-][n+]1c(/C=C/c2cccs2)nc(N2CCOCC2)c2c1CCCC2
In ClCCl
  absorption maximum: 400 nm

## Cc1ccc2nc3cc4c5c(cccc5c3nc2c1)C(c1ccccc1)=C(c1ccccc1)O4
In ClCCl
  absorption maximum: 491 nm

## CCn1c2ccccc2c2cc(-c3cc(-c4ccc5c(c4)c4ccccc4n5CC)nc(-c4ccc(C#N)cc4)n3)ccc21
In C1CCOC1
  absorption maximum: 367 nm
In CCOC(C)=O
  absorption maximum: 363 nm
In CN(C)C=O
  absorption maximum: 370 nm
In Cc1ccccc1
  absorption maximum: 366 nm
In ClCCl
  absorption maximum: 365 nm

## CCN(CC)c1ccc2cc(/C=C/C3=CC(/C=C/c4cc5ccc(N(CC)CC)cc5oc4=O)=[O+][B-](F)(F)O3)c(=O)oc2c1
In CC#N
  absorption maximum: 630 nm
In CC(C)=O
  absorption maximum: 620 nm
In CCOC(C)=O
  absorption maximum: 604 nm
In CN(C)C=O
  absorption maximum: 641 nm
In CS(C)=O
  absorption maximum: 652 nm
In Cc1ccccc1
  absorption maximum: 598 nm
In ClC(Cl)Cl
  absorption maximum: 615 nm
In ClCCl
  absorption maximum: 625 nm

## COc1c2ccccc2c(OC)c2c(C#C[Si](C(C)C)(C(C)C)C(C)C)c3cc4ccccc4cc3c(C#C[Si](C(C)C)(C(C)C)C(C)C)c12
In ClCCl
  absorption maximum: 686 nm

## CCC(CC)COC1=CC2=C3c4cc(OCC(CC)CC)c(-c5cccs5)n4[B-](F)(F)[n+]4c3n(c3cc(C(C)(C)C)ccc34)[B-](F)(F)[N+]2=C1c1cccs1
In C1CCOC1
  absorption maximum: 792 nm
In ClCCl
  absorption maximum: 791 nm

## CCCCC[n+]1ccc(/C=C/c2ccc(N(C)C)c3ccccc23)c2ccccc21
In C1CCOC1
  absorption maximum: 502 nm
In C1COCCO1
  absorption maximum: 495 nm
In CC#N
  absorption maximum: 496 nm
In CC(C)=O
  absorption maximum: 503 nm
In CCCCO
  absorption maximum: 522 nm
In CCO
  absorption maximum: 508 nm
In CN(C)C=O
  absorption maximum: 501 nm
In CO
  absorption maximum: 503 nm
In CS(C)=O
  absorption maximum: 506 nm
In ClC(Cl)Cl
  absorption maximum: 522 nm
In O
  absorption maximum: 452 nm
In c1ccccc1
  absorption maximum: 494 nm
In c1ccncc1
  absorption maximum: 526 nm

## CCCCCCCCCCCCN1C(=O)c2ccc3c4ccc5c6c(ccc(c7ccc(c2c37)C1=O)c64)C(=O)NC5=O
In CN(C)C=O
  absorption maximum: 522 nm

## COc1ccc(/C=C/C2=[O+][B-](F)(F)OC(/C=C/c3ccc(OC)cc3)=C2c2ccc(OC)cc2)cc1
In ClCCl
  absorption maximum: 506 nm

## COc1cc(/C=C/c2ccccc2)cc(OC)c1
In CC#N
  absorption maximum: 306 nm

## CCCC1(CCC)c2cc(-c3ccc4c(c3)C(CCC)(CCC)c3cc(-c5ccc6c(c5)C(CCC)(CCC)c5cc(C(C)(C)CC)ccc5-6)ccc3-4)ccc2-c2ccc(-c3ccc4c(c3)C(CCC)(CCC)c3cc(C(C)(C)CC)ccc3-4)cc21
In C1CCCCC1
  absorption maximum: 362 nm

## CC(C)(C)c1ccc(C2=C(c3ccc(-n4c5ccccc5c5ccccc54)cc3)S(=O)(=O)c3c2sc(-c2ccc(-n4c5ccccc5c5ccccc54)cc2)c3-c2ccc(C(C)(C)C)cc2)cc1
In C1CCOC1
  absorption maximum: 419 nm

## CCOC(=O)C1(O)c2cc3ccc4cccc5ccc(c2C(=O)N1C(C)(C)C)c3c45 (stereo unspecified)
In ClC(Cl)Cl
  absorption maximum: 385 nm

## c1ccc(-c2cc3c(oc4ccccc43)c(-c3ccccc3)[o+]2)cc1
In CC#N
  absorption maximum: 385 nm
In ClCCCl
  absorption maximum: 395 nm

## N[C@@H](Cc1ccc(O)cc1)C(=O)O
In O
  absorption maximum: 285 nm

## F[B-]1(F)Oc2ccccc2-c2nc(-c3ccccc3)c3cc(Cl)ccc3[n+]21
In Cc1ccccc1
  absorption maximum: 395 nm

## CCOC(=O)c1ccc(C2CC(c3cccc4ccccc34)=NN2c2ccc(OC)cc2)cc1 (stereo unspecified)
In ClCCl
  absorption maximum: 383 nm

## F[B-]1(F)n2cccc2C=C2C=CC=[N+]21
In C1CCCCC1
  absorption maximum: 503.5 nm
In CC(C)=O
  absorption maximum: 497.5 nm
In CCCCCC
  absorption maximum: 502 nm
In CCO
  absorption maximum: 498 nm
In CCOC(C)=O
  absorption maximum: 498 nm
In CO
  absorption maximum: 497 nm
In ClCCl
  absorption maximum: 503 nm
In OCC(F)(F)F
  absorption maximum: 497 nm

## CC1(C)c2ccccc2N(c2ccc3c(c2)C2(c4cc(N5c6ccccc6C(C)(C)c6ccccc65)ccc4-3)c3ccccc3S(=O)(=O)c3ccccc32)c2ccccc21
In Cc1ccccc1
  absorption maximum: 364 nm

## C[Si](C)(C)c1ccc(-c2ccc(-c3ccc(-c4ccc(-c5ccc([Si](C)(C)C)cc5)s4)c4nsnc34)s2)cc1
In C1CCOC1
  absorption maximum: 495 nm

## CC(C)(C)c1ccc(Oc2cc3c4c(cc(Oc5ccc(C(C)(C)C)cc5)c5c6c(Oc7ccc(C(C)(C)C)cc7)cc7c8c(cc(Oc9ccc(C(C)(C)C)cc9)c(c2c45)c86)C(=O)C2=C7O[B-](F)(F)[n+]4c2ccc2ccccc24)C2=C(C3=O)c3ccc4ccccc4[n+]3[B-](F)(F)O2)cc1
In ClCCl
  absorption maximum: 650 nm

## COc1cc(OC)cc(-c2ccc(C3=CC(c4ccccc4)=C(c4ccccc4)C3)cc2)c1
In ClCCl
  absorption maximum: 366 nm

## COc1ccc(C#Cc2ccccc2C#Cc2ccc(OC)cc2)cc1
In CC#N
  absorption maximum: 320 nm

## c1ccc(C2=C(c3ccccc3)c3cccc4c3c(cc3nc5ccccc5nc34)O2)cc1
In ClCCl
  absorption maximum: 494 nm

## COc1ccc(-c2sc3c(-c4ccc(OC)cc4)c4n(c3c2-c2ccc(OC)cc2)[B-](F)(F)[N+]2=Cc3c(-c5ccc(OC)cc5)c5sc(-c6ccc(OC)cc6)c(-c6ccc(OC)cc6)c5n3[B-](F)(F)[N+]2=C4)cc1
In CC#N
  absorption maximum: 587 nm
In CCCCCC
  absorption maximum: 595 nm
In CN(C)C=O
  absorption maximum: 593 nm
In Cc1ccccc1
  absorption maximum: 610 nm
In ClCCl
  absorption maximum: 600 nm

## CC1CCC(=CS/C=C/c2ccc(/C=C/SC=C3CCC(C)CC3)cc2)CC1 (stereo unspecified)
In ClCCl
  absorption maximum: 350 nm

## O=C(O)c1ccc(C(=O)O)c2cc3ccccc3cc12
In C1CCOC1
  absorption maximum: 396 nm
In CN(C)C=O
  absorption maximum: 390 nm

Source: the Deep4Chem optical property database
